Measured values taken from US20250120999A1 (priority 2022, published 2025).
pKd: −log10 of the molar value. “And” between values parts separate entries of the source, which are not always exact repeats. Equal values may be shown once. Marks after values point to notes of the source that are not given here.

Assays:
MPXV A29 protein = type: binding, monkeypox virus (MPXV)
MPXV A35 protein [1] = type: binding, monkeypox virus (MPXV)
MPXV A29 [2] = type: binding, monkeypox virus (MPXV)
MPXV A29 [3] = type: binding, monkeypox virus (MPXV); remark: listed apart in the source
MPXV A35 protein [4] = type: binding, monkeypox virus (MPXV); remark: listed apart in the source
SARS-CoV-2 wild-type = conditions: cited from earlier work
[5] = test system: SARS-CoV-2 Delta (B.1.617.2); conditions: cited from earlier work
MPXV L1R = type: binding, monkeypox virus (MPXV)

| Substance | Normalized A29 protein binding (%) (MPXV A29 protein) | ability to inhibit A29-surface-immobilized heparin interaction (in words) (MPXV A29 protein) | Normalized A35 protein binding (%) (MPXV A35 protein [1]) | ability to inhibit A35-surface-immobilized heparin interaction (in words) (MPXV A35 protein [1]) | inhibition of MPXV A29 binding to heparin surface (in words) (MPXV A29 [2]) | inhibition of MPXV A29 binding to surface-immobilized heparin (MPXV A29 protein) | inhibition of MPXV A35 binding to surface-immobilized heparin (MPXV A35 protein [1]) | other results |
| --- | --- | --- | --- | --- | --- | --- | --- | --- |
| [→3)-α-Fuc2,4S-(1→3)-α-Fuc-(1→3)-α-Fuc2S-(1→3)-α-Fuc2S-(1→]n [HfSF] | 8.5** % | showed the ability to inhibit | 23.9* % | showed the ability to inhibit | – | – | – | – |
| 2-O-desulfated IdoA heparin [2-desulfated heparin] | – | – | – | – | weaker inhibition | – | – | – |
| N-desulfated heparin | – | – | – | – | weaker inhibition | – | – | – |
| mucopolysaccharide polysulfate [MPS] | – | – | – | – | strongest inhibition | – | – | inhibition of MPXV A29 binding to surface-immobilized heparin (MPXV A29 [2]): 69% |
| dermatan sulfate [DS] | – | – | – | – | – | – | – | ka (MPXV A29 [3]): 4487 M⁻¹ s⁻¹; kd (MPXV A29 [3]): 2.8 × 10^−3 (±2.6 × 10^−5) s^−1; binding of GAG chip to MPXV A35 protein (in words) (MPXV A35 protein [4]): neither CS nor DS showed binding |
| [→3)-β-GalNAc4,6S-(1→4)β-GlcA-[(3→1)Y]-(1→]n, where Y=α-Fuc2,4S (96%) or α-Fuc4S (4%) [IbFucCS] | 7.6* % | showed the ability to inhibit | 20.1* % | showed the ability to inhibit | – | 91.5% and 86.1% | 79.9% and 77% | inhibitory activity against SARS-CoV-2 wild-type (in words) (SARS-CoV-2 wild-type): showed inhibitory activity; inhibitory activity against SARS-CoV-2 Delta (in words) [5]: showed inhibitory activity |
| chondroitin-4-sulfate [CSA] | – | – | – | – | – | – | – | ka (MPXV A29 [3]): 3730 M⁻¹ s⁻¹; kd (MPXV A29 [3]): 3.2 × 10^−3 (±5.4 × 10^−5) s^−1 |
| chondroitin-4,6-sulfate [CSE] | – | – | – | – | – | – | – | ka (MPXV A29 [3]): 4858 M⁻¹ s⁻¹; kd (MPXV A29 [3]): 1.5 × 10^−3 (±4.7 × 10^−5) s^−1 |
| pentosan polysulfate [PPS] | – | – | – | – | strongest inhibition | – | – | inhibition of MPXV A29 binding to surface-immobilized heparin (MPXV A29 [2]): 62% |
| [→3)-β-GalNAc4,6S-(1→4)-β-GlcA-[(3→1)Y]-(1→]n, where Y=αFuc2,4S (45%), α-Fuc3,4S (35%), or α-Fuc4S (20%) [HfFucCS] | 13.9* % | showed the ability to inhibit | 23.0* % | showed the ability to inhibit | – | – | – | – |
| [→3)-α-GalNAcX(1→4)-β-GlcA-[(3→1)Y]-(1→]n, where X=4S (80%), 6S (10%), or non-sulfated (10%), and Y=−Fuc2,4S (40%), αFuc2,4S-(1→4)-α-Fuc (30%), or α-Fuc4S (30%) [PpFucCS] | 13.0* % | showed the ability to inhibit | 19.0* % | showed the ability to inhibit | – | 87% | 89% | – |
| heparin | 43.3* % | – | 27.7* % | – | – | 60% | 72% | kd (MPXV A29 [3]): 7.1 × 10^−3 (±5.0 × 10^−5) s^−1; pKd (MPXV A29 [3]; read-out: KD heparin-A29 interaction): 6.60; binding between MPXV L1R protein and heparin (in words) (MPXV L1R): essentially no binding; ka (MPXV A35 protein [4]): 1.8 × 10^3 M^−1S^−1; pKd (MPXV A35 protein [4]; read-out: KD heparin-A35 interaction): 6.66; inhibition of MPXV A29 binding to surface-immobilized heparin (MPXV A29 [2]): 30% |
| [→3)-α-Fuc2,4S-(1→3)-α-Fuc2S-(1→3)-α-Fuc2S-(1→3)-α-Fuc-(1→]n [IbSF] | 5.0** % | showed the ability to inhibit | 24.3* % | showed the ability to inhibit | – | 95% and 92.4% | 75.8% and 77.4% | inhibitory activity against SARS-CoV-2 wild-type (in words) (SARS-CoV-2 wild-type): showed inhibitory activity; inhibitory activity against SARS-CoV-2 Delta (in words) [5]: showed inhibitory activity |
| 6-O-desulfated heparin [6-desulfated heparin] | – | – | – | – | weaker inhibition | – | – | – |
| [→3)-α-Fuc2,4S-(1→3)-αFuc2S-(1→3)-α-Fuc2S-(1→3)-α-Fuc4S-(1→]n [LvSF] | 23.6* % | showed the ability to inhibit | 16.9* % | showed the ability to inhibit | – | 76.4% | 83.1% | – |
| chondroitin sulfate [CS] | – | – | – | – | – | – | – | binding of GAG chip to MPXV A35 protein (in words) (MPXV A35 protein [4]): neither CS nor DS showed binding |
